This is an account of results in the supplement of paper PMC10307832.

Holding throughout (assay): relative viability (nuclei count vs DMSO), 5 days (fraction); higher = more cells survive
Compound in the experiment “NVP-TAE684 + Alpelisib”: COc1cc(N2CCC(N3CCN(C)CC3)CC2)ccc1Nc1ncc(Cl)c(Nc2ccccc2S(=O)(=O)C(C)C)n1 [NVP-TAE684] + Cc1nc(NC(=O)N2CCC[C@H]2C(N)=O)sc1-c1ccnc(C(C)(C)C(F)(F)F)c1 [Alpelisib] (partner 2 µM)
The procedure, abridged: (§1)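 The day after seeding in 1536-well plates, lung cancer cell lines were treated by pin tool with a single drug, or with a fixed anchor-drug dose together with five library-drug doses (not always all listed) in √10 steps. After 5 days, a combined fix-and-stain solution (final 0.05% Triton X-100, 1% formaldehyde, 1 ug/ml Hoechst) was added. Nuclei counted on 4× images gave relative viability as treated counts over vehicle counts, reported as the median of duplicate plates.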

Compound in experiment [1]: C1=CC=C2C(=C1)N=C(S2)C(C#N)C3=NC(=NC=C3)NCCC4=CN=CC=C4 + CC1(C)CCC(c2ccc(Cl)cc2)=C(CN2CCN(c3ccc(C(=O)NS(=O)(=O)c4ccc(N[C@H](CCN5CCOCC5)CSc5ccccc5)c(S(=O)(=O)C(F)(F)F)c4)cc3)CC2)C1 [Navitoclax] (partner 0.5 µM)
The procedure, abridged:
as §1

Compound in experiment [2]: C1=CC=C2C(=C1)N=C(S2)C(C#N)C3=NC(=NC=C3)NCCC4=CN=CC=C4 + CC(=O)Nc1cccc(-n2c(=O)n(C3CC3)c(=O)c3c(Nc4ccc(I)cc4F)n(C)c(=O)c(C)c32)c1 [Trametinib] (partner 0.02 µM)
A digest of the protocol:
as §1

Compound in the experiment “CUDC-101 + Pemetrexed”: C#Cc1cccc(Nc2ncnc3cc(OC)c(OCCCCCCC(=O)NO)cc23)c1 [CUDC-101] + Nc1nc2[nH]cc(CCc3ccc(C(=O)N[C@@H](CCC(=O)O)C(=O)O)cc3)c2c(=O)[nH]1 [Pemetrexed] (partner 0.2 µM)
A digest of the protocol:
as §1

Turning to PC-3 [JPC-3], the relative viability in the experiment with NVP-TAE684 + Alpelisib (first compound 0.2 µM) came out at 0.963; in the experiment with NVP-TAE684 + Alpelisib (first compound 0.6325 µM), 1.02; with NVP-TAE684 + Alpelisib (first compound 2 µM), 0.893; in experiment [1] (first compound 0.005 µM) it was 0.776; in experiment [1] (first compound 0.01581 µM), 0.835; in experiment [1] (first compound 0.05 µM), 0.731. Also, the relative viability came to 0.819 in experiment [1] (first compound 0.1581 µM); 0.843 in experiment [1] (first compound 0.5 µM); 0.689 in experiment [2] (first compound 0.005 µM); 0.642 in experiment [2] (first compound 0.05 µM); 0.737 in experiment [2] (first compound 0.1581 µM); 0.636 in experiment [2] (first compound 0.5 µM). For the same cell line, the relative viability with CUDC-101 + Pemetrexed (first compound 0.01 µM) turned out to be 1.12; in the experiment with CUDC-101 + Pemetrexed (first compound 0.03162 µM), 1.06; in the experiment with CUDC-101 + Pemetrexed (first compound 0.1 µM), 0.842; with CUDC-101 + Pemetrexed (first compound 0.3162 µM), 0.439; with CUDC-101 + Pemetrexed (first compound 1 µM), 0.393.
For the cell line PC-14, the relative viability in the experiment with NVP-TAE684 + Alpelisib (first compound 0.2 µM) was found to be 0.728; with NVP-TAE684 + Alpelisib (first compound 0.6325 µM) it was 1.05; in the experiment with NVP-TAE684 + Alpelisib (first compound 2 µM), 0.874; in experiment [1] (first compound 0.005 µM), 0.808; in experiment [1] (first compound 0.01581 µM), 1.13; in experiment [1] (first compound 0.05 µM), 1.09. Also, the relative viability in experiment [1] (first compound 0.1581 µM) is 1.09; in experiment [1] (first compound 0.5 µM) it was 0.851; in experiment [2] (first compound 0.005 µM), 0.411; in experiment [2] (first compound 0.01581 µM), 0.933; in experiment [2] (first compound 0.05 µM), 0.633; in experiment [2] (first compound 0.1581 µM), 0.948. Besides, the relative viability was 0.809 in experiment [2] (first compound 0.5 µM); 0.154 with CUDC-101 + Pemetrexed (first compound 0.01 µM); 0.129 with CUDC-101 + Pemetrexed (first compound 0.03162 µM); 0.156 with CUDC-101 + Pemetrexed (first compound 0.1 µM); 0.138 in the experiment with CUDC-101 + Pemetrexed (first compound 0.3162 µM); 0.152 with CUDC-101 + Pemetrexed (first compound 1 µM).
With RERF-LC-KJ, the relative viability with NVP-TAE684 + Alpelisib (first compound 0.2 µM) amounted to 0.789; with NVP-TAE684 + Alpelisib (first compound 0.6325 µM), 0.743; with NVP-TAE684 + Alpelisib (first compound 2 µM) it was 0.843; in experiment [1] (first compound 0.005 µM), 1.29; in experiment [1] (first compound 0.01581 µM) it was 0.811; in experiment [1] (first compound 0.05 µM), 0.804. In addition, the relative viability was found to be 0.843 in experiment [1] (first compound 0.1581 µM); 0.875 in experiment [1] (first compound 0.5 µM); 0.916 in experiment [2] (first compound 0.005 µM); 0.877 in experiment [2] (first compound 0.01581 µM); 0.911 in experiment [2] (first compound 0.05 µM); 0.961 in experiment [2] (first compound 0.1581 µM). In addition, the relative viability in experiment [2] (first compound 0.5 µM) is 0.688; with CUDC-101 + Pemetrexed (first compound 0.01 µM) it was 0.476; with CUDC-101 + Pemetrexed (first compound 0.03162 µM), 0.493; in the experiment with CUDC-101 + Pemetrexed (first compound 0.1 µM), 0.438; with CUDC-101 + Pemetrexed (first compound 0.3162 µM) it was 0.42; with CUDC-101 + Pemetrexed (first compound 1 µM) it was 0.357.
As for SK-LU-1, the relative viability with NVP-TAE684 + Alpelisib (first compound 0.2 µM) worked out at 1.1; in the experiment with NVP-TAE684 + Alpelisib (first compound 0.6325 µM) it was 0.863; with NVP-TAE684 + Alpelisib (first compound 2 µM), 0.4; in experiment [1] (first compound 0.01581 µM) it was 0.828; in experiment [1] (first compound 0.05 µM), 0.694; in experiment [1] (first compound 0.1581 µM), 1.02. Moreover, the relative viability in experiment [1] (first compound 0.5 µM) turned out to be 1.02; in experiment [2] (first compound 0.005 µM), 0.461; in experiment [2] (first compound 0.01581 µM), 0.437; in experiment [2] (first compound 0.05 µM), 0.413; in experiment [2] (first compound 0.1581 µM) it was 0.532; in experiment [2] (first compound 0.5 µM), 0.474. Besides, the relative viability in the experiment with CUDC-101 + Pemetrexed (first compound 0.01 µM) is 0.948; with CUDC-101 + Pemetrexed (first compound 0.03162 µM), 1.12; with CUDC-101 + Pemetrexed (first compound 0.1 µM), 0.948; in the experiment with CUDC-101 + Pemetrexed (first compound 0.3162 µM), 0.965; with CUDC-101 + Pemetrexed (first compound 1 µM), 0.947.
For SK-MES-1, the relative viability in the experiment with NVP-TAE684 + Alpelisib (first compound 0.2 µM) stood at 0.691; in the experiment with NVP-TAE684 + Alpelisib (first compound 0.6325 µM), 1; with NVP-TAE684 + Alpelisib (first compound 2 µM) it was 0.827; in experiment [1] (first compound 0.005 µM) it was 1.76; in experiment [1] (first compound 0.01581 µM), 1.19; in experiment [1] (first compound 0.05 µM), 1.3. In addition, the relative viability was 1.28 in experiment [1] (first compound 0.1581 µM); 1.02 in experiment [1] (first compound 0.5 µM); 0.576 in experiment [2] (first compound 0.005 µM); 0.555 in experiment [2] (first compound 0.01581 µM); 0.531 in experiment [2] (first compound 0.05 µM); 0.604 in experiment [2] (first compound 0.1581 µM). In addition, the relative viability in experiment [2] (first compound 0.5 µM) is 0.629; with CUDC-101 + Pemetrexed (first compound 0.01 µM), 0.896; with CUDC-101 + Pemetrexed (first compound 0.03162 µM), 0.946; in the experiment with CUDC-101 + Pemetrexed (first compound 0.1 µM) it was 0.922; in the experiment with CUDC-101 + Pemetrexed (first compound 0.3162 µM), 0.972; with CUDC-101 + Pemetrexed (first compound 1 µM), 0.724.
Turning to SW 1573, the relative viability with NVP-TAE684 + Alpelisib (first compound 0.2 µM) was determined as 0.574; with NVP-TAE684 + Alpelisib (first compound 0.6325 µM) it was 0.827; in the experiment with NVP-TAE684 + Alpelisib (first compound 2 µM) it was 0.592; in experiment [1] (first compound 0.005 µM) it was 0.863; in experiment [1] (first compound 0.01581 µM), 1.15; in experiment [1] (first compound 0.1581 µM) it was 1.03. Further, the relative viability in experiment [1] (first compound 0.5 µM) amounted to 0.828; in experiment [2] (first compound 0.005 µM), 0.615; in experiment [2] (first compound 0.01581 µM) it was 0.587; in experiment [2] (first compound 0.05 µM), 0.479; in experiment [2] (first compound 0.1581 µM), 0.718; in experiment [2] (first compound 0.5 µM) it was 0.499. Besides, the relative viability with CUDC-101 + Pemetrexed (first compound 0.01 µM) is 0.86; with CUDC-101 + Pemetrexed (first compound 0.03162 µM) it was 0.97; in the experiment with CUDC-101 + Pemetrexed (first compound 0.1 µM), 1.08; with CUDC-101 + Pemetrexed (first compound 0.3162 µM), 0.96; in the experiment with CUDC-101 + Pemetrexed (first compound 1 µM), 0.459.
